Patent publication US12396961B2, “Compounds and compositions for intracellular delivery of agents” (ModernaTX, Inc., priority 2015, dated 2025)

Legend:
[1] = Lipid clearance: % dose remaining in mice (liver) 6 h and 24 h after administration of nanoparticle compositions; type: in vivo, CD-1 mice; settings: Table 7c, species not given
[2] = tested on: luciferase (Luc) mRNA expression; assay: Luc expression (AUC) in CD-1 mice relative to MC3; type: in vivo; settings: for Liver/Spleen Ratio / Lipid/MC3 AUC: Table 7c; for Lipid/MC3 AUC: AUC relative to MC3; for Lipid/MC3 AUC CD-1 mice 0.5 mpk: Table 7b, Luc expression; for Lipid/MC3 Luc CD-1 (mice): Luc expression relative to MC3, CD-1 mice
Protocol: FIG. 15 is a graph summarizing luciferase expression levels at 6 h after administration of nanoparticle compositions containing compounds of the disclosure to CD-1 mice at a dose of 0.5 mpk. Total light flux values were acquired via body luminescent imaging (BLI) 6 h after administration. In this Figure, the numbers 1-7 and 10 refer to the compositions containing Compounds 4-10 and MC3 respectively.
In contrast, hEPO expression in rats induced by administration of nanoparticle composition including compound according to one of formulae (I), (Ia1)-(Ia6), (Ib), (II), (IIa), (III), and (IIIa) was substantially lower than that measured for MC3. […] Table 7c and 7d show additional protein expressions and clearance data from compositions with various compounds disclosed herein as compared to with MC3.

[3] = tested on: LDLr mRNA / Luc expression; assay: Expression (AUC) in LDLr−/− mice relative to KL22; type: in vivo; settings: Table 7b
[4] = Particle size and polydispersity index (Zetasizer Nano ZS); type: physicochemical; settings: Table 1; for PDI: DOPE 40:20:38.5:1.5, Luc mRNA
In short: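 Particle size and polydispersity index were measured by dynamic light scattering on a Zetasizer Nano ZS in 1×PBS. Zeta potential was measured in 15 mM PBS.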

[5] = Lipid levels (clearance) in liver and spleen 48 hours after administration; type: in vivo, rats; settings: rat liver, 48 h
Protocol: Formulations were administered intravenously to rats (n=3 or 6) at a dosage of 0.2 mg/kg or 0.5 mg/kg (mpk) and hEPO levels measured at 3, 6, and 24 hour time points. After the 48 hour time point, livers and spleens were harvested and frozen.
The amount of lipid in the liver and spleen 48 hours after administration of a nanoparticle composition was also measured. […] In contrast, approximately 60% of doses including MC3 or Compound 22 remained in the liver after 48 hours. Less than 3% of the dose remained in the spleen for each composition tested.

hEPO mRNA expression = assay: Expression of hEPO in mice (CD-1); type: in vivo, CD-1 mice; settings: mice; in words
Excerpt: FIG. 12 is a set of graphs illustrating hEPO expression levels in CD-1 mice dosed with compounds of the disclosure, compared to MC3. PBS is used as control. […] In graphs A-C numbers 1-14 refer to compositions containing the following: 1: Compound 73, 2: Compound 80, 3: Compound 70; 4: Compound 81; 5: Compound 69; 6: Compound 82; 7: Compound 83; 8: Compound 62; 9: Compound 84; 10: Compound 85; 11: Compound 86; 12: Compound 87; 13: MC3; 14: PBS.
FIG. 13 is a graph showing hEPO levels (pg/mL) in CD-1 mice up to −25 h after administration of a nanoparticle composition containing compounds of the disclosure, compared to a composition containing MC3. Numbers 1-13 refer to compositions containing the following: 1: Compound 73, 2: Compound 80, 3: Compound 70; 4: Compound 81; 5: Compound 69; 6: Compound 82; 7: Compound 83; 8: Compound 62; 9: Compound 84; 10: Compound 85; 11: Compound 86; 12: Compound 87; 13: MC3. […]

[6] = tested on: luciferase (Luc) mRNA expression; assay: Expression of Luc, bioluminescence (total flux) after intravenous administration to mice; type: in vivo; settings: mice; in words
Protocol: In order to monitor how effectively various nanoparticle compositions deliver therapeutic and/or prophylactic agents to targeted cells, different nanoparticle compositions including a particular therapeutic and/or prophylactic agent (for example, a modified or naturally occurring RNA such as an mRNA) are prepared and administered to rodent populations. Mice are intravenously, intramuscularly, intraarterially, or intratumorally administered a single dose including a nanoparticle composition with a formulation such as those provided in Table 1. In some instances, mice may be made to inhale doses. Dose sizes may range from 0.001 mg/kg to 10 mg/kg, where 10 mg/kg describes a dose including 10 mg of a therapeutic and/or prophylactic agent in a nanoparticle composition for each 1 kg of body mass of the mouse. A control composition including PBS may also be employed.
Upon administration of nanoparticle compositions to mice, dose delivery profiles, dose responses, and toxicity of particular formulations and doses thereof can be measured by enzyme-linked immunosorbent assays (ELISA), bioluminescent imaging, or other methods. For nanoparticle compositions including mRNA, time courses of protein expression can also be evaluated. Samples collected from the rodents for evaluation may include blood, sera, and tissue (for example, muscle tissue from the site of an intramuscular injection and internal tissue); sample collection may involve sacrifice of the animals.
The efficacy of the nanoparticle compositions presented in Tables 1, la, 17-1, 19-1, 20-1 and 21-1 was evaluated with a bioluminescence study. Formulations were administered intravenously to mice (n=6) at a dosage of 0.5 mg/kg (mpk) and bioluminescence measured at 3, 6, and 24 hour time points. The standard MC3 formulation and a PBS control were evaluated for comparison.

SMILES	% Dose Remaining 24 hr [1]	Liver/Spleen Ratio [2]	Lipid/MC3 AUC [2]	Lipid/KL22 AUC LDLr−/− mice 0.5 mpk, LDLr [3]	PDI [4]	Lipid/MC3 AUC CD-1 mice 0.5 mpk [2]	also measured
CCCCCCCCCN(CCCCCCCCC)CCN(CCCCCCCCC)CC(=O)N1CCN(C(=O)CN(CCCCCCCCC)CCCCC(=O)OCCCC)CC1 [Compound 55, Butyl 5-((2-(4-(N-(2-(dinonylamino)ethyl)-N-nonylglycyl)piperazin-1-yl)-2-oxoethyl)(nonyl)amino)pentanoate]	1.60%	9	0.14				
CCCCCCCCCN(CCCCCCC(=O)OCC)CCC1CCN(C(=O)CN(CCCCCCCCC)CCN(CCCCCCCCC)CCCCCCCCC)CC1 [Compound 58, Ethyl 7-((2-(1-(N-(2-(dinonylamino)ethyl)-N-nonylglycyl)piperidin-4-yl)ethyl)(nonyl)amino)heptanoate]	0.61%	11	0.97				
CCCCCCCCCCCCN(CCCCCCCCCCCC)CCN(CCCCCCCCC)CC(=O)N1CCN(C(=O)CN(CCCCCCCCCCCC)CCCCCCCCCCCC)CC1 [Compound 10, 2-(Didodecylamino)-1-(4-(N-(2-(didodecylamino)ethyl)-N-nonylglycyl)piperazin-1-yl)ethan-1-one]				0.71	0.130	1.14	
CCCCCCCCCCCCN(CCCCCCCCCCCC)CCN(CCCCCCCCC)CC(=O)N1CCN(C(=O)CN(CCCCCCCCC)CCCCCCCCC)CC1 [Compound 6, 2-((2-(Didodecylamino)ethyl)(nonyl)amino)-1-(4-(dinonylglycyl)piperazin-1-yl)ethan-1-one]				0.37	0.160	1.72	
CCCCCCCCCN(CCCCCCCCC)CCN(CCCCCCCCC)CC(=O)N1CCN(C(=O)CN(CCCCCCCCC)CCCC(=O)OCCCCC)CC1 [Compound 45, Pentyl 4-((2-(4-(N-(2-(dinonylamino)ethyl)-N-nonylglycyl)piperazin-1-yl)-2-oxoethyl)(nonyl)amino)butanoate]					0.200		% dose remaining Rat liver (48 h) [5]: 8.57%; Lipid/MC3 Luc CD-1 (mice) [2]: 6.50
CCCCCCCCCN(CCCCCCCCC)CCN(CCCCCCCCC)CC(=O)N1CCN(C(=O)CN(CCCCCCCCC)CCCOC(=O)CCCCC)CC1 [Compound 56, 3-((2-(4-(N-(2-(Dinonylamino)ethyl)-N-nonylglycyl)piperazin-1-yl)-2-oxoethyl)(nonyl)amino)propyl Hexanoate]	0.16%	29	1.25				
CCCCCCCCCCCCN(CCN(CCCCCCCCC)CCCCCCCCC)CC(=O)N1CCN(C(=O)CN(CCCCCCCCC)CCCCCCCCC)CC1 [Compound 5, 2-(Dinonylamino)-1-(4-(N-(2-(dinonylamino)ethyl)-N-dodecylglycyl)piperazin-1-yl)ethan-1-one]				1.86	0.140	2.62	
CCCCCCCCCN(CCCCCCCCC)CCN(CCCCCCCCC)CC(=O)N1CCN(C(=O)CN(CCCC(=O)OCCCCC)CCCC(=O)OCCCCC)CC1 [Compound 72, Dipentyl 4,4′-((2-(4-(N-(2-(dinonylamino)ethyl)-N-nonylglycyl)piperazin-1-yl)-2-oxoethyl)azanediyl)dibutyrate]	6.40%	6	0.46				
CCCCCCCCCN(CCCCCCCCC)CCC1CCN(C(=O)CN(CCCCCCCCC)CCN(CCCCCCCCC)CCCCCCCCC)CC1 [Compound 49, 2-((2-(Dinonylamino)ethyl)(nonyl)amino)-1-(4-(2-(dinonylamino)ethyl)piperidin-1-yl)ethan-1-one]					0.200		% dose remaining Rat liver (48 h) [5]: 38.45%; Lipid/MC3 Luc CD-1 (mice) [2]: 5.23
CCCCCCCCCCCCN(CCCCCCCCCCCC)CCN(CCCCCCCCCCCC)CC(=O)N1CCN(C(=O)CN(CCCCCCCCC)CCCCCCCCC)CC1 [Compound 7, 2-((2-(Didodecylamino)ethyl)(dodecyl)amino)-1-(4-(dinonylglycyl)piperazin-1-yl)ethan-1-one]				2.46	0.130	1.51	
CCCCCCCCCCCCN(CCCCCCCCCCCC)CC(=O)N1CCN(C(=O)CN(CCCCCCCCC)CCN(CCCCCCCCC)CCCCCCCCC)CC1 [Compound 8, 2-(Didodecylamino)-1-(4-(N-(2-(dinonylamino)ethyl)-N-nonylglycyl)piperazin-1-yl)ethan-1-one]				3.74	0.110	2.33	
CCCCCCCCCN(CCCOC(=O)CCCCC)CCC1CCN(C(=O)CN(CCCCCCCCC)CCN(CCCCCCCCC)CCCCCCCCC)CC1 [Compound 61, 3-((2-(1-(N-(2-(Dinonylamino)ethyl)-N-nonylglycyl)piperidin-4-yl)ethyl)(nonyl)amino)propyl Hexanoate]	0.13%	30	3.27				
CCCCCCCCCN(CCCCCCCCC)CCN(CCCCCCCCC)CC(=O)N1CCN(C(=O)CN(CCCCCCCCC)CCCCCCC(=O)OCC)CC1 [Compound 53, Ethyl 7-((2-(4-(N-(2-(dinonylamino)ethyl)-N-nonylglycyl)piperazin-1-yl)-2-oxoethyl)(nonyl)amino)heptanoate]	0.77%	17	0.07				
CCCCCCCCCN(CCCCCCCC(=O)OC)CCC1CCN(C(=O)CN(CCCCCCCCC)CCN(CCCCCCCCC)CCCCCCCCC)CC1 [Compound 57, Methyl 8-((2-(1-(N-(2-(dinonylamino)ethyl)-N-nonylglycyl)piperidin-4-yl)ethyl)(nonyl)amino)octanoate]	0.24%	15	0.85				% Dose Remaining 6 hr ([1]; 6 hr): 0.88%
CCCCCCCCCCCCN(CCCCCCCCCCCC)CC(=O)N1CCN(C(=O)CN(CCCCCCCCCCCC)CCN(CCCCCCCCC)CCCCCCCCC)CC1 [Compound 9, 2-(Didodecylamino)-1-(4-(N-(2-(dinonylamino)ethyl)-N-dodecylglycyl)piperazin-1-yl)ethan-1-one]				0.58	0.170	0.73	Size (nm) ([4]; lipid:DOPE:Chol:PEG-DMG 40:20:38.5:1.5, Luc mRNA, MC3 standard formulation): 78.0 nm
CCCCCCCCCCCCN(CCCCCCCCCCCC)CCN(CCCCCCCCCCCC)CCN1CCN(CCN(CCCCCCCCCCCC)CCCCCC(=O)OCCCCC)CC1 [Compound 12, Pentyl 6-((2-(4-(2-((2-(didodecylamino)ethyl)(dodecyl)amino)ethyl)piperazin-1-yl)ethyl)(dodecyl)amino)hexanoate]					0.096		hEPO expression in mice compared with MC3 (Table 7a) (hEPO mRNA expression): substantially higher; Luc expression in mice compared with MC3 (Table 7a) [6]: significantly lower; Lipid/MC3 Luc CD-1 (mice) [2]: 0.21
